Like-named read-outs stand apart in the source and are kept apart here. Positions of bridges follow the written chain, without caps; N, C: chain ends. Non-standard residues stand in square brackets, D forms with d. Residues, ends and D or L forms follow the SMILES beside them. *: point of attachment. Octanoyl = CCCCCCCC(=O)*; Dab = NCC[C@H](N)C(=O)O
Assays:
[1] = test system: E. coli IH3080; assay: Agar well growth inhibition on LB plates with or without rifampin; assay type: cell-based, Escherichia coli; conditions: well containing 4 micrograms of the compound; for Activity w. rifampin: growth inhibition around a well: LB plate containing rifampin 0.1 micrograms/ml; for Direct activity: growth inhibition around a well: LB plates
[2] = test system: bacteria; conditions: Sakura et al. (2004); cited from earlier work
[3] = test system: Ac. baumannii ATCC19606; assay: E-test MIC of antibacterial agents on Mueller-Hinton agar with or without NAB741; assay type: cell-based; conditions: Acinetobacter baumannii; A. baumannii ATCC19606; meropenem alone; read-out: MIC of meropenem at NAB 741 concn 0 μg/ml
Description: (§1) Five of the strains originated from ATCC. Acinetobacter baumannii F264 was purchased from Mobidiag Ltd., Helsinki, Finland. The source of E. coli IH3080 has been given in Example 2.
(§2) Sensitization factor was defined as in Example 4. NAB7061 sensitized the meropenem-resistant strain F264 to meropemen by a factor >4.

[4] = test system: Ac. baumannii F264; assay: as above; assay type: cell-based; conditions: Acinetobacter baumannii; A. baumannii F264 (meropenem-resistant); meropenem alone; read-out: MIC of meropenem at NAB 741 concn 0 μg/ml
Description: as §1, §2

[5] = Basic pharmacokinetics after i.v. bolus in rats; assay type: in vivo, rat (Sprague-Dawley); conditions: rat
Procedure: Blood samples were centrifuged to obtain plasma. […] Plasma and urine samples were stored at −80° C. […] NAB 741 was eluted at 6.65±0.05 min and NAB739 was eluted at 9.45±0.05 min.

[6] = test system: E. coli (ATCC25922 and IH3080), K. pneumoniae ATCC13883, and E. cloacae ATCC23355; assay type: cell-based; conditions: all four strains; NAB741 alone
Procedure: MICs were determined by using E-strips (Biodisk Ltd., Solna, Sweden) according to the manufacturer's instructions.

[7] = rat, in vivo; cited from earlier work

Row | Compound | Activity w. rifampin: growth inhibition around a well [1] [square millimeters] | Direct activity: growth inhibition around a well [1] [square millimeters] | other results
1 | Deacylcolistin | 87 | 79 | –
2 | Polymyxin B nonapeptide [Polymyxin B nonpeptide] | 20 | 0 | –
3 | Polymyxin B heptapeptide | 0 | 0 | –
4 | octanoyl polymyxin B heptapeptide [Octanoyl PMBH] | 0 | 0 | Concentration that inhibits the growth of bacteria [2]: 128 µg/mL
5 | Polymyxin B | 95 | 79 | –
6 | acetyl-Thr-DAsn-cy[Dab-Dab-DPhe-Leu-Dab-Dab-Thr-] [NAB 745] | 50 | 0 | –
7 | C[C@@H](O)[C@H]1C(=O)N2C(C(=O)O)=C(S[C@@H]3CN[C@H](C(=O)N(C)C)C3)[C@H](C)[C@H]12 [meropenem] | – | – | MIC [3]: 0.75 µg/mL; MIC [4]: > 32 µg/mL
8 | CC(=O)N[C@H](C(=O)N[C@H](CO)C(=O)N[C@H]1CCNC(=O)[C@H]([C@@H](C)O)NC(=O)[C@H](CCN)NC(=O)[C@H](CCN)NC(=O)[C@H](CC(C)C)NC(=O)[C@@H](Cc2ccccc2)NC(=O)[C@H](CCN)NC1=O)[C@@H](C)O [NAB 741, acetyl-Thr-DSer-cy[Dab-Dab-DPhe-Leu-Dab-Dab-Thr-]] (Ac-T[dS][Dab][Dab][dF]L[Dab][Dab]T; lactam 3-C (inferred)) | – | – | urinary recovery ([5]; in vivo, iv, 1 mg/kg): 50.9±13.6 % of dose in 24 h; volume of distribution ([5]; in vivo, iv, 1 mg/kg): 0.243 ± 0.024 L/kg; MIC of NAB741 [6]: > 16 µg/mL
9 | Deacylpolymyxin B | 79 | 57 | –
10 | Colistin (polymyxin E) | – | – | clearance [7]: 5.2 ± 0.4 mL/min/kg; half-life [7]: 1.24 ± 0.22 h; renal clearance [7]: 0.010 ± 0.008 mL/min/kg; volume of distribution [7]: 0.496 ± 0.06 L/kg
11 | CCCCCCCC(=O)N[C@H](C(=O)N[C@H](CO)C(=O)N[C@H]1CCNC(=O)[C@H]([C@@H](C)O)NC(=O)[C@H](CCN)NC(=O)[C@H](CCN)NC(=O)[C@H](CC(C)C)NC(=O)[C@@H](Cc2ccccc2)NC(=O)[C@H](CCN)NC1=O)[C@@H](C)O [NAB 739] (Octanoyl-T[dS][Dab][Dab][dF]L[Dab][Dab]T; lactam 3-C) | – | – | clearance ([5]; acetate 1 mg/kg i.v. bolus): 2.63 ± 0.54 mL/min/kg; renal clearance ([5]; acetate 1 mg/kg i.v. bolus): 0.53 ± 0.30 mL/min/kg; volume of distribution ([5]; acetate 1 mg/kg i.v. bolus): 0.222 ± 0.0205 L/kg; half-life ([5]; acetate 1 mg/kg i.v. bolus, plasma): 1.15 ± 0.365 h

From patent publication US9090669B2, “Short fatty acid tail polymyxin derivatives and uses thereof” (priority 2008, dated 2015)
